Here are results for ten compounds from publication PMC6120739 (ACS Omega, 2018).

Broadly, the EC50 is the concentration needed to bring the measured effect to its halfway point. As usually defined, the IC50 is the point on the concentration scale where inhibition reaches its midpoint.

The test system of one series is UWB1.289 cells. Description: Cell viability assay. As to conditions: for EC50: UWB1289, read-out: UWB1.289 EC50; for cytotoxicity in BRCA1-null model, result in words: compared with AZD2461 and olaparib.
Another series has as its target PARP-1 (Homo sapiens, UniProt P09874). The series is described as follows: PARP-1 radioligand binding. As to conditions: PARP-1 IC50, OVCAR8 cells, [125I]KX1 radioligand, ± SEM, n = 3.
For the next series, the system named is UWB1.289 + BRCA1 cells. Description: Cell viability assay. Type of series: cell-based. The conditions noted are these: for EC50: UWB1289, read-out: UWB1.289 + BRCA1 EC50; for antiproliferative effect in BRCA1-restored UWB1.289, result in words: in contrast to olaparib and AZD2461.
The target in another series is recombinant human P-gp (Homo sapiens, UniProt P08183). Description: Pgp-Glo assay. As to conditions: 20 µM compound, 1 hr at 37°C, normalized to Na3VO4.

“Also recorded” adds a separate entry of the source.

PARP-1, sequence (P09874 whole entry): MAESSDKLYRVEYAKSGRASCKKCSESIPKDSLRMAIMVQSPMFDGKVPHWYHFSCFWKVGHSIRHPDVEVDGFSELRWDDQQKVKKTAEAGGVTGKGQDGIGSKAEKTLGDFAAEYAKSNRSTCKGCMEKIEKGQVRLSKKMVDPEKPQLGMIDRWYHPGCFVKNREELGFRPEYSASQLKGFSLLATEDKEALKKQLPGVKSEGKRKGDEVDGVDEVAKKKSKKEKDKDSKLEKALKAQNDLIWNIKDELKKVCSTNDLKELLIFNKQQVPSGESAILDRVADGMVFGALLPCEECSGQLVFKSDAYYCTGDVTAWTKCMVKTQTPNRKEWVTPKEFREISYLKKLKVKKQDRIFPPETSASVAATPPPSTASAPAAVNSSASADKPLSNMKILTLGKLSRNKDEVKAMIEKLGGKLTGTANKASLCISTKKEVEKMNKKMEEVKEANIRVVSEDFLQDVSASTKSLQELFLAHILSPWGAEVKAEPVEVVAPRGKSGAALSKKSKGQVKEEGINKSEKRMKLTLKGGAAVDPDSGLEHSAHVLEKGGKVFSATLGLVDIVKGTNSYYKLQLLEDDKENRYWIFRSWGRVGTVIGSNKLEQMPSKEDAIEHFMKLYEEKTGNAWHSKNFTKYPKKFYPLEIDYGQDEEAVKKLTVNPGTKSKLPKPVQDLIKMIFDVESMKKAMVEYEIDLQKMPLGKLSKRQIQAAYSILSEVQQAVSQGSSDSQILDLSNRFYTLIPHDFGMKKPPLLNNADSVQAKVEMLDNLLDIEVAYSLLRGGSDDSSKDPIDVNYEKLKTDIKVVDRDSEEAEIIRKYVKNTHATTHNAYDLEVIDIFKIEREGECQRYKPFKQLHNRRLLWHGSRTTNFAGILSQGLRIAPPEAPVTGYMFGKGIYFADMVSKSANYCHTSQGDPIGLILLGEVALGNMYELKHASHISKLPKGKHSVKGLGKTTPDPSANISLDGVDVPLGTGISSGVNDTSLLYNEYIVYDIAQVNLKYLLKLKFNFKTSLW
recombinant human P-gp, sequence (P08183 whole entry): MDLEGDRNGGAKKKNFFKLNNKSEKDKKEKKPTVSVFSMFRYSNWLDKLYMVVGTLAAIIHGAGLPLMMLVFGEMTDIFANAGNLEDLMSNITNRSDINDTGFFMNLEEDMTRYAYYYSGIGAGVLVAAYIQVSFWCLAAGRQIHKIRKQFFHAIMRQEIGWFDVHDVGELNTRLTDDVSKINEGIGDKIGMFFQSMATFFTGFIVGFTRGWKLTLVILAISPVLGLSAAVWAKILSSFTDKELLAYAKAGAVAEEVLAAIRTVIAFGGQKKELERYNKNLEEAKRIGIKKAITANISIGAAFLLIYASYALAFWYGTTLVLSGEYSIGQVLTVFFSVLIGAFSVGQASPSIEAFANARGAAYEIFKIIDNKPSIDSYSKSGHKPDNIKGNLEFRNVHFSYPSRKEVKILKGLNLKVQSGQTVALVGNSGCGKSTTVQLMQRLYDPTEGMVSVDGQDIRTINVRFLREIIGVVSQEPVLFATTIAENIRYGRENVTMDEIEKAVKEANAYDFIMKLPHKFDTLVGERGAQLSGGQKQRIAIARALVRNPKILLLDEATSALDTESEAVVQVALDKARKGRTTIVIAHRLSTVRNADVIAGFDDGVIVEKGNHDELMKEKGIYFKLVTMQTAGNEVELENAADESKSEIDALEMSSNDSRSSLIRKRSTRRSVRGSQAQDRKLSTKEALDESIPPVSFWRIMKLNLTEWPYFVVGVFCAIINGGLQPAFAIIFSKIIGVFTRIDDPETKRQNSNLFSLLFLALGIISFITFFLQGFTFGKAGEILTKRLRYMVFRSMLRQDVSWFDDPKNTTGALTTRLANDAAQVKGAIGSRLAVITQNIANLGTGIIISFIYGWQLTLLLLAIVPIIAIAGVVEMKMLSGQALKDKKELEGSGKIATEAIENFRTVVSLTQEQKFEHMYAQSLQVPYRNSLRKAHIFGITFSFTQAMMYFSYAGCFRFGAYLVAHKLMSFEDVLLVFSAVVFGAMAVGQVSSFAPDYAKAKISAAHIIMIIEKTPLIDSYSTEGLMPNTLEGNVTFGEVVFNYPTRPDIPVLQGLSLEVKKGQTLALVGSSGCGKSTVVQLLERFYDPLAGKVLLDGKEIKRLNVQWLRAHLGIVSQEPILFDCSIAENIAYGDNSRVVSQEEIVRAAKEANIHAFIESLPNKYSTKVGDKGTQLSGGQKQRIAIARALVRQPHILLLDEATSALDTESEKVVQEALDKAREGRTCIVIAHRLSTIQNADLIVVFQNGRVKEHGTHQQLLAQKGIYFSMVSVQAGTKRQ

Turning to `COC1CN(C(=O)c2cc(Cc3n[nH]c(=O)c4ccccc34)ccc2F)C1` [Compound 2], in the series on UWB1.289 cells, the EC50 was 2120 ± 200 nM; the “cytotoxicity in BRCA1-null model, result in words” value (shortened to “cytotoxicity in BRCA1-null model”) is “less cytotoxic than both AZD2461 and olaparib”. Moreover, on PARP-1, the IC50 was less than 10 nM. Also, in the series on UWB1.289 + BRCA1 cells, the EC50 was found to be 13400 ± 700 nM and the “antiproliferative effect in BRCA1-restored UWB1.289, result in words” value (“antiproliferative effect” below) is given as “poor antiproliferative effects”. The “P-gp ATPase interaction (luminescence), result in words” value (“P-gp ATPase interaction (luminescence)” below) at recombinant human P-gp is recorded as “increase in luminescence”.
In the case of `COC1CCN(C(=O)c2cc(Cc3n[nH]c(=O)c4ccccc34)ccc2F)C1` (stereo not drawn) [Compound 3], in the series on UWB1.289 cells, the EC50 is 1500 ± 400 nM; the “cytotoxicity in BRCA1-null model” value is “less cytotoxic than both AZD2461 and olaparib”. At PARP-1, this compound had an IC50 of less than 10 nM. In the series on UWB1.289 + BRCA1 cells, the EC50 was 8580 ± 1100 nM and the “antiproliferative effect” value is “poor antiproliferative effects”. At recombinant human P-gp, the “P-gp ATPase interaction (luminescence)” value is recorded as “increase in luminescence; also recorded: weakest activators of P-gp ATPase; also recorded: least activating agents of P-gp ATPase”.
For `COC1CCN(C(=O)c2cc(Cc3n[nH]c(=O)c4ccccc34)ccc2F)CC1` [Compound 4, AZD2461, reference compound], the EC50 in the series with UWB1.289 cells was 890 ± 700 nM; in the series with UWB1.289 + BRCA1 cells it was 2280 ± 300 nM.
Take `COC1CCCN(C(=O)c2cc(Cc3n[nH]c(=O)c4ccccc34)ccc2F)CC1` (stereo not drawn) [Compound 5]: in the series with UWB1.289 cells, the EC50 turned out to be 2840 ± 1400 nM; the “cytotoxicity in BRCA1-null model” value is “less cytotoxic than both AZD2461 and olaparib”. Moreover, the IC50 at PARP-1 is less than 10 nM. In the series with UWB1.289 + BRCA1 cells, the EC50 was 3490 ± 200 nM and the “antiproliferative effect” value was “poor antiproliferative effects”. Further, at recombinant human P-gp, the “P-gp ATPase interaction (luminescence)” value is “increase in luminescence; also recorded: weakest activators of P-gp ATPase”.
Consider `COC1CC(NC(=O)c2cc(Cc3n[nH]c(=O)c4ccccc34)ccc2F)C1` (stereo not drawn) [Compound 6], for which the EC50 in the series on UWB1.289 cells amounted to 10100 ± 1500 nM; in the series on UWB1.289 + BRCA1 cells it was 6620 ± 4300 nM. Further, the “P-gp ATPase interaction (luminescence)” value on recombinant human P-gp is recorded as “only P-gp substrate in this study”.
Regarding `CO[C@H]1C[C@H](NC(=O)c2cc(Cc3n[nH]c(=O)c4ccccc34)ccc2F)C1` [Compound 7], the EC50 with UWB1.289 cells is 1940 ± 1100 nM; in the series on UWB1.289 + BRCA1 cells, 2810 ± 1400 nM. The compound also displayed an IC50 at PARP-1 of 20.8 ± 1.1 nM.
For `CO[C@H]1C[C@@H](NC(=O)c2cc(Cc3n[nH]c(=O)c4ccccc34)ccc2F)C1` [Compound 8], the EC50 in the series with UWB1.289 cells is 4350 ± 1700 nM; in the series with UWB1.289 + BRCA1 cells, 13900 ± 1100 nM. The same compound had an IC50 on PARP-1 of 107 ± 1.1 nM.
Regarding `COC1CCC(NC(=O)c2cc(Cc3n[nH]c(=O)c4ccccc34)ccc2F)C1` (stereo not drawn) [Compound 9], the EC50 with UWB1.289 cells stood at 1320 ± 500 nM; with UWB1.289 + BRCA1 cells, 9310 ± 1000 nM. For the same compound, the IC50 at PARP-1 was 49.5 ± 1.1 nM. Also, the “P-gp ATPase interaction (luminescence)” value on recombinant human P-gp is reported as “poor activator of P-pg ATPase; also recorded: least activating agents of P-gp ATPase”.
Take `COC1CCC(NC(=O)c2cc(Cc3n[nH]c(=O)c4ccccc34)ccc2F)CC1` (stereo not drawn) [Compound 10]: the EC50 amounted to 2420 ± 900 nM in the series on UWB1.289 cells and 6160 ± 1300 nM with UWB1.289 + BRCA1 cells. The IC50 on PARP-1 was 226.3 ± 1.1 nM.
`O=C(c1cc(Cc2n[nH]c(=O)c3ccccc23)ccc1F)N1CCN(C(=O)C2CC2)CC1` [olaparib, reference compound]: the figures for the EC50 with UWB1.289 cells and in the series with UWB1.289 + BRCA1 cells were 900 ± 500 nM and 1970 ± 400 nM, respectively. At recombinant human P-gp, the “P-gp ATPase interaction (luminescence)” value is recorded as “acts more of a P-gp ATPase activator, than 4”.
